Data on 13 molecules can be found in ChEMBL document CHEMBL1134041, “Imide and lactam derivatives of N-benzylpyroglutamyl-L-phenylalanine as VCAM/VLA-4 antagonists” (Bioorg Med Chem Lett, 2001).

The term IC50 denotes the concentration at which inhibition is half-maximal.

The target in experiment [1] is T1, Integrin alpha-4/beta-1 (Homo sapiens, UniProt P05556+P13612). The experiment in a line: Inhibition of human VCAM and Ramos cell VLA-4 interaction. The experiment is classed as cell-based.
Experiment [2] has as its target T1, Integrin alpha-4/beta-1. The experiment in a line: Inhibition of human VCAM binding to VLA-4 of Ramos cells in ELISA. The experiment is classed as cell-based.

T1 sequence (P05556 whole entry): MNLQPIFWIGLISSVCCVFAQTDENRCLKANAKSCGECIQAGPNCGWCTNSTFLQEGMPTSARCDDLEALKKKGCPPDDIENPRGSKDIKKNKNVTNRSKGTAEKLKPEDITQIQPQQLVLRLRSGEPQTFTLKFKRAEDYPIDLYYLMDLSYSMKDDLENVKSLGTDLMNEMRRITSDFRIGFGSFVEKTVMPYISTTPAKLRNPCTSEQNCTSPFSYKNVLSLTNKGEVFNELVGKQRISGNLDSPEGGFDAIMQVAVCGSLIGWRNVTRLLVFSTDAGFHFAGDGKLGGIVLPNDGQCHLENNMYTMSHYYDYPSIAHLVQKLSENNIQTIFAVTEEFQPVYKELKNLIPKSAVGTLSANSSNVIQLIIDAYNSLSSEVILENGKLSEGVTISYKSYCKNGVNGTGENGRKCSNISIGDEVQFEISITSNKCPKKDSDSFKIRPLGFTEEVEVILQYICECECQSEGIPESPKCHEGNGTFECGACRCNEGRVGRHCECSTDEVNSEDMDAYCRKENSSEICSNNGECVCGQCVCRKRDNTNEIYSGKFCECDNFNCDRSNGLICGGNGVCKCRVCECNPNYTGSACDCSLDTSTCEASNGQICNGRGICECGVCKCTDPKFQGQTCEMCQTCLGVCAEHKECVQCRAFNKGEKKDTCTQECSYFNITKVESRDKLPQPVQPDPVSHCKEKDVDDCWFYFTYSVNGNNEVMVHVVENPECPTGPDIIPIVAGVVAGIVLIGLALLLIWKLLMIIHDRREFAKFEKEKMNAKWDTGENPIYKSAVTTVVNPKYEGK
T1 sequence (P13612 whole entry): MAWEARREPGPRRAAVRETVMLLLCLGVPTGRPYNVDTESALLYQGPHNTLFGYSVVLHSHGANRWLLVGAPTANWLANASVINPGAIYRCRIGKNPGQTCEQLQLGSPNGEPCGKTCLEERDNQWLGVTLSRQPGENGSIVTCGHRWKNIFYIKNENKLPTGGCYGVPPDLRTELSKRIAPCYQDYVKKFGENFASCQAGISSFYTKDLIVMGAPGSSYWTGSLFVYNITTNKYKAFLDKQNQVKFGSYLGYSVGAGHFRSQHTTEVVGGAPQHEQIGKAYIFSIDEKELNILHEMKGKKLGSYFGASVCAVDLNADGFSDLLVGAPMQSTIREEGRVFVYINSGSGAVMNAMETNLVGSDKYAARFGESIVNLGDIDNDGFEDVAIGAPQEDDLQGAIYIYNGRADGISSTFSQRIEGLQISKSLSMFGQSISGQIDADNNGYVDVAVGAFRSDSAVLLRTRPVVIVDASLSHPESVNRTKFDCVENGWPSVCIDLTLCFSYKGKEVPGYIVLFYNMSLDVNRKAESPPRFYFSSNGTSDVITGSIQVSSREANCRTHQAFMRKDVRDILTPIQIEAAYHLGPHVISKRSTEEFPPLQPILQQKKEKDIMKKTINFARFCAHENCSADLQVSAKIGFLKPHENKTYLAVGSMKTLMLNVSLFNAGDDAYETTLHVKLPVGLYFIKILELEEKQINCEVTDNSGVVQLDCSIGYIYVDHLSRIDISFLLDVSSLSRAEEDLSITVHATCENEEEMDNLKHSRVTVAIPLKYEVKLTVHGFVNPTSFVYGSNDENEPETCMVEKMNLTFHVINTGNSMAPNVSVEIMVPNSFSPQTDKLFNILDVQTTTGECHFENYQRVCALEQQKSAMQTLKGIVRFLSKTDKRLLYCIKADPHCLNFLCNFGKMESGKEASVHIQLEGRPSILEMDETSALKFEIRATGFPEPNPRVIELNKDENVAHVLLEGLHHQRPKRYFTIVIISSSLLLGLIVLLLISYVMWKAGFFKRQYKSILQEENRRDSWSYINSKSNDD

`O=C(O)[C@H](Cc1ccc(N2C(=O)CC(c3ccccc3)C2=O)cc1)NC(=O)[C@@H]1CCC(=O)N1Cc1ccccc1` (stereo not given in full): the IC50 in experiment [1] was found to be 92 nM; in experiment [2] it was 1.7 nM.
The like results for `O=C(O)[C@H](Cc1ccc(N2Cc3ccccc3C2=O)cc1)NC(=O)[C@@H]1CCC(=O)N1Cc1ccccc1` were, in that order, 500 nM and 2.7 nM.
The like results for `O=C(O)[C@H](Cc1ccc(N2C(=O)CCC2=O)cc1)NC(=O)[C@@H]1CCC(=O)N1Cc1ccccc1` were, in that order, 286 nM and 3.2 nM.
Regarding `O=C(O)[C@H](Cc1ccc(N2C(=O)c3ccccc3C2=O)cc1)NC(=O)[C@@H]1CCC(=O)N1Cc1ccccc1`, the figures for the IC50 in experiment [1] and in experiment [2] were 20 nM and 0.52 nM, respectively.
The like results for `O=C(O)[C@H](Cc1ccc(N2C(=O)CC(Cc3ccccc3)C2=O)cc1)NC(=O)[C@@H]1CCC(=O)N1Cc1ccccc1` (stereo not given in full) were, in that order, 123 nM and 0.94 nM.
Take `O=C(O)[C@H](Cc1ccc(N2C(=O)CCC(c3ccccc3)C2=O)cc1)NC(=O)[C@@H]1CCC(=O)N1Cc1ccccc1` (stereo not given in full): the half-inhibitory concentration (IC50) came to 184 nM in experiment [1] and 0.99 nM in experiment [2].
For `O=C(O)[C@H](Cc1ccc(N2C(=O)CC3(CCCC3)CC2=O)cc1)NC(=O)[C@@H]1CCC(=O)N1Cc1ccccc1` the same measures were 57 nM and 0.54 nM.
`O=C(Nc1ccc(C[C@H](NC(=O)[C@@H]2CCC(=O)N2Cc2ccccc2)C(=O)O)cc1)c1c(Cl)cccc1Cl`: the IC50 in experiment [1] amounted to 12 nM; in experiment [2], 0.37 nM.
In experiment [2], `O=C(O)[C@H](Cc1ccc(N2CCCC2=O)cc1)NC(=O)[C@@H]1CCC(=O)N1Cc1ccccc1` showed a half-maximal inhibitory concentration (IC50) of 16 nM.
`O=C(O)[C@H](Cc1ccc(N2C(=O)Cc3ccccc3C2=O)cc1)NC(=O)[C@@H]1CCC(=O)N1Cc1ccccc1`: the IC50 is 107 nM in experiment [1] and 0.98 nM in experiment [2].
Consider `CC(C)CC1CC(=O)N(c2ccc(C[C@H](NC(=O)[C@@H]3CCC(=O)N3Cc3ccccc3)C(=O)O)cc2)C1=O` (stereo not given in full), for which the IC50 turned out to be 41 nM in experiment [1] and 0.76 nM in experiment [2].
For `O=C(O)[C@H](Cc1ccc(N2C(=O)CC(c3ccc(O)cc3)C2=O)cc1)NC(=O)[C@@H]1CCC(=O)N1Cc1ccccc1` (stereo not given in full) the same measures were 420 nM and 2.6 nM.
As to `O=C(O)[C@H](Cc1ccc(N2C(=O)c3ccncc3C2=O)cc1)NC(=O)[C@@H]1CCC(=O)N1Cc1ccccc1`, the concentration for half-maximal inhibition (IC50) in experiment [1] worked out at 650 nM; in experiment [2] it was 4.3 nM.
